Tested on: ovalbumin-sensitized guinea pigs
Test: Guinea pig allergic rhinitis model: intranasal pressure after nasal ovalbumin challenge
Type: in vivo
Details: single administration, 60 minutes prior to ovalbumin 1% challenge, AUC 0-30 min
Protocol: Male Hartley guinea pigs (250-500 g) purchased from Charles River (St-Constant, Qc, Canada) were used. They were housed in a temperature and humidity controlled environment, in groups of four or five with food and water available ad libitum. Experimental procedures were approved by the Animal Care Committee at Merck Frosst Centre for Therapeutic Research, in accordance with the guidelines of the Canadian Council on Animal Care.
Sensitization: The animals were injected intrapeRitoneally with 0.5 ml of an ovalbumin solution (100 μg/ml) containing 100 mg/ml aluminum hydroxide in 0.9% saline. […]
Following the surgical preparation, gallamine (2 mg/kg, i.v.) was administered to suppress spontaneous breathing. […] The changes in the intranasal pressure were monitored through a pressure transducer (Validyne DP-45, membrane 6-26, Validyne Corp., Northridge, Calif.) connected to a side arm of the nasal cannula. Values were recorded every 5 seconds using a data acquisition system (Modular Instruments, Malvern, Pa.). […] The changes in intranasal pressure were recorded for 30 minutes following the nasal challenge, using the peak response.
The effects of test compounds were evaluated on the increased intranasal pressure following a nasal challenge with an aerosol of ovalbumin 1% for 3 minutes. […]

SMILES	effect on the increase in intranasal pressure produced by aerosol of ovalbumin (1 mg/kg i.p.)	effect on the increase in intranasal pressure produced by aerosol of ovalbumin (5 mg/kg i.p.)
C[S@+]([O-])c1cccc2c3c(n(Cc4ccc(Cl)cc4)c12)[C@@H](CC(=O)O)CCC3 [Compound I, 2-[(1R)-9-(4-chlorobenzyl)-8-((S)-methylsulfinyl)-2,3,4,9-tetrahydro-1H-carbazol-1-yl]acetic acid]	no significant effect	–
COc1ccc(CN(CCN(C)C)c2ccccn2)cc1 [mepyramine]	–	no significant effect

From patent US20030055077A1, “Method and compositions for the treatment of allergic conditions using pgd2 receptor antagonists” (priority 2002, published 2003)
